Experimental data as given in patent US20210395327A1, “Growth Hormone-Releasing Hormone Antagonists and Uses Thereof” (United States Government As Represented By The Department …, priority 2019, published 2021).
Non-standard residues stand in square brackets, D forms with d. Residues, ends and D or L forms follow the SMILES beside them. *: point of attachment. Phenylacetyl(2,3,4,5,6-F5) = O=C(Cc1c(F)c(F)c(F)c(F)c1F)*; Phe(F5) = N[C@@H](Cc1c(F)c(F)c(F)c(F)c1F)C(=O)O; Phe(4-Cl) = N[C@@H](Cc1ccc(Cl)cc1)C(=O)O; hArg = N=C(N)NCCCC[C@H](N)C(=O)O; 12Ado = NCCCCCCCCCCCC(=O)O; Nle = CCCC[C@H](N)C(=O)O; Abu = CC[C@H](N)C(=O)O

What was measured:
[1] = tested on: CFPAC-1 pancreatic cancer cells; assay: In vitro cell viability, CFPAC-1; format: cell-based, human; conditions: Table 3B; 5 μM for 72 H; MIA-602 = 1
In short: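 Cells grown to ~60% confluence, serum-starved 24 h in 0.5% FBS medium, then exposed to compounds at 5 μM (some at 2 μM) or 0.1% DMSO vehicle for 72 h, in quintuplicate, medium changed every 48 h. Viability read by MTS-type CellTiter 96 AQueous assay; values are inhibitory potency relative to MIA602.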

[2] = tested on: GH release from rat pituitary cells; assay: Inhibition of GH release from rat pituitary cells in vitro (GH ELISA); format: cell-based; conditions: for Relative GH release: analogs 20 nM, then with 1 nM GHRH(1-29)NH2 for 30 minutes, Control = 1.00
Experimental: In vitro assessment of the antagonistic activity of GHRH analogs. Rats were decapitated and pituitaries were collected in pre-warmed HBSS (Hanks' Balanced Salt Solution). Tissue was then cut into small pieces and digested in HBSS medium containing 3% BSA, 50 μg/ml gentamycin and 0.5% collagenase for 50 minutes at 37° C. Cells were further dispersed by pipetting and passed through a 100 μm cell strainer with the addition of DMEM containing 50 μg/ml gentamycin. 10% horse serum and 2.5% FBS (growth medium). Cells were harvested at 475×g for 2 minutes, resuspended in fresh growth medium and seeded onto poly-D-lysine-coated 24-well plates (7 pituitaries/plate). Cells were left to recover for 4 days. Growth medium was then replaced with serum-free DMEM for 4 hours and GHRH analogs (at concentration of 20 nM) were added in DMEM containing 0.1% BSA for 30 minutes. Cells were replenished with medium containing the same concentration of the analogs and 1 nM GHRH(1-29)NH2 for 30 minutes. Medium from this step was collected, centrifuged at 800 g for 3 minutes and GH concentration was determined by ELISA (ALPCO Diagnostics, Mill Valley, Calif.) according to the manufacturer's instruction.

[3] = tested on: lung cancer HCC827 xenograft; assay: Xenograft tumor growth in nude mice, HCC827; format: in vivo; conditions: Table 4B, Lung Ca HCC827, 7 weeks, 5 μg/day s.c.; for % Inhibition: vs control
Experimental: The peptides' activity was compared with GHRH antagonist MIA-602. All statistical analyzses were performed from comparing GHRA antagonists to non-treated tumor (control).
Peptides and chemicals. GHRH antagonists MIA-602 and AVR-GHRH antagonists (see Table 2 above) were synthesized by solid phase methods and purified by HPLC. The peptides were dissolved in DMSO and further diluted in 10% 1,2-propanediol. The final concentration of peptides was 50 µg/ml in 10% 1,2-propanediol containing 0.1% of DMSO.
Cell culture. Human cancer cell lines including pancreatic (PANC-1 and CFPAC-1), lung (HCC827 and H460), stomach (NCI-N87), prostate (PC3), brest (MX-1 and HCC-1806), colorectal (HT-29), and ovarian (SK-OV-3 and OVCAR-3) were obtained from the American Type Culture Collection (ATCC) and cultured at 37° C. in a humidified 95% air/5% CO2 atmosphere in the medium recommended by ATCC.
Xenograft models of human cancers in nude mice. Female athymic (NCr nu/nu) nude mice, 5- to 6-weeks-old, obtained from the Envigo labs (Tampa, Fla.), were housed in laminar airflow cabinets under pathogen-free conditions with a 12-h light/12-h dark schedule, and were fed autoclaved standard chow and water. To generate mice with xenografted tumors, tumor xenografts were initiated by subcutaneous (s.c.) injection of 107 human cancer cells into female nude mice. After about 4 weeks the resulting tumors were dissected and collected after removing necrosis tissues. The tumors were then cut into particles with size of 3 mm3 and transplanted s.c. by trocar needle into experimental animals. When tumors grew to the size of 50-60 mm3 (by volume), mice were randomized into groups and treated daily for 4-8 weeks by subcutaneous administration of 5 μg of GHRH antagonists MIA-602 or AVR-compounds (2-10 μg as indicated), or vehicle solutions (0.1% DMSO in 10% 1,2-propanediol) respectively. Tumor sizes were measured weekly.
Statistical analysis. One-way ANOVA followed by Bonferroni comparison were performed. Data are expressed as Mean±SEM. To determine statistical significance between animal groups, two-tailed Student's t-test was conducted. Differences were considered significant when p<0.05.
Results. […] FIG. 1A-N represents in vivo inhibition of tumor growth during the treatment with GHRH antagonist MIA-602 and selected AVR antagonists in nude mice xenografted with various human tumors including pancreatic cancer PANC-1 (FIG. 1A) and CFPAC-1 (FIG. 1I); lung cancer HCC827 (FIGS. 1B, C) and H460 (FIG. 1H); stomach cancer N87 (FIGS. 1D-F); colon cancer HT-29 (FIG. 1G); breast cancer MX-1 and HCC-1806 (FIGS. 1J, K); ovarian cancer SK-OV-3 and OVACAR-3 (FIGS. 1 L, M) and prostate cancer PC3 (FIG. 1N). See also Table 5.

CCCC[C@H](NC(=O)[C@@H](NC(=O)[C@H](CC(=O)O)NC(=O)[C@H](CCC(N)=O)NC(=O)[C@H](CC(C)C)NC(=O)[C@H](CC(C)C)NC(=O)[C@H](CCCCN)NC(=O)[C@H](CCCNC(=N)N)NC(=O)[C@H](C)NC(=O)[C@H](CO)NC(=O)[C@H](CC(C)C)NC(=O)[C@H](CCC(N)=O)NC(=O)[C@H](CC)NC(=O)[C@H](CC(C)C)NC(=O)[C@@H](NC(=O)[C@H](CCCCN)NC(=O)[C@H](CCCNC(=N)N)NC(=O)[C@H](Cc1ccc(OC)cc1)NC(=O)[C@H](CCCCNC(=N)N)NC(=O)[C@H](C)NC(=O)[C@@H](NC(=O)[C@H](Cc1c(F)c(F)c(F)c(F)c1F)NC(=O)[C@@H](NC(=O)[C@H](C)NC(=O)[C@H](CC(=O)O)NC(=O)[C@@H](CCCNC(=N)N)NC(=O)[C@H](Cc1ccc(O)cc1)NC(=O)CCCCCCCCCCCNC(=O)Cc1c(F)c(F)c(F)c(F)c1F)[C@@H](C)CC)[C@@H](C)O)C(C)C)[C@@H](C)CC)C(=O)N[C@H](CCCNC(=N)N)C(=O)N[C@@H](CCCCNC(=N)N)C(=O)NCCCCCCCCCCCC(N)=O [AVR-352, 5FPhAC-Ada-Tyr-DArg-Asp-Ala-Ile-5FPhe-Thr-Ala-Har-Tyr(Me)-Arg-Lys-Val-Leu-Abu-Gln-Leu-Ser-Ala-Arg-Lys-Leu-Leu-Gln-Asp-Ile-Nle-DArg-Har-Ada-NH2] ({Phenylacetyl(2,3,4,5,6-F5)-12Ado}-Y[dR]DAI[Phe(F5)]TA[hArg]Y(Me)RKVL[Abu]QLSARKLLQDI[Nle][dR][hArg][12Ado]-NH2)
In vitro relative inhibitory potency in comparison to MIA-602, CFPAC-1 [1]: 1.576
Relative GH release [2]: 0.72 ± 0.03
inhibitory effects on the release of GH, compared with MIA-602 (in words) ([2]; rat pituitary cells in vitro, 20 nM): higher inhibitory effects than MIA-602
Tumor Growth % [3]: 371.7%
% Inhibition [3]: 71.6%

CCCC[C@H](NC(=O)[C@@H](NC(=O)[C@H](CC(=O)O)NC(=O)[C@H](CCC(N)=O)NC(=O)[C@H](CC(C)C)NC(=O)[C@H](CC(C)C)NC(=O)[C@H](CCCCN)NC(=O)[C@H](CCCNC(=N)N)NC(=O)[C@H](C)NC(=O)[C@H](CO)NC(=O)[C@H](CC(C)C)NC(=O)[C@H](CCC(N)=O)NC(=O)[C@H](CC)NC(=O)[C@H](CC(C)C)NC(=O)[C@@H](NC(=O)[C@H](CCCCN)NC(=O)[C@H](CCCNC(=N)N)NC(=O)[C@H](Cc1ccc(OC)cc1)NC(=O)[C@H](CCCCNC(=N)N)NC(=O)[C@H](CC(N)=O)NC(=O)[C@@H](NC(=O)[C@H](Cc1ccc(Cl)cc1)NC(=O)[C@@H](NC(=O)[C@H](C)NC(=O)[C@H](CC(=O)O)NC(=O)[C@@H](CCCNC(=N)N)NC(=O)[C@H](Cc1ccc(O)cc1)NC(=O)CCCCCCCCCCCNC(=O)Cc1c(F)c(F)c(F)c(F)c1F)[C@@H](C)CC)[C@@H](C)O)C(C)C)[C@@H](C)CC)C(=O)N[C@H](CCCNC(=N)N)C(=O)N[C@@H](CCCCNC(=N)N)C(=O)NCCCCCCCCCCCC(N)=O [AVR-333, 5FPhAC-Ada-Tyr-DArg-Asp-Ala-Ile-Cpa-Thr-Asn-Har-Tyr(Me)-Arg-Lys-Val-Leu-Abu-Gln-Leu-Ser-Ala-Arg-Lys-Leu-Leu-Gln-Asp-Ile-Nle-DArg-Har-Ada-NH2] ({Phenylacetyl(2,3,4,5,6-F5)-12Ado}-Y[dR]DAI[Phe(4-Cl)]TN[hArg]Y(Me)RKVL[Abu]QLSARKLLQDI[Nle][dR][hArg][12Ado]-NH2)
In vitro relative inhibitory potency in comparison to MIA-602, CFPAC-1 [1]: 2.288
Relative GH release [2]: 0.88 ± 0.03
Tumor Growth % [3]: 407.5%
% Inhibition [3]: 68.9%
